Measured values from PubChem BioAssay AID1159605 (The Scripps Research Institute Molecular Screening Center, 2016).
The source made the active and inactive calls.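 Rule for the calls: active = IC50 of 10 µM or lower; inactive = IC50 above 10 µM.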

The compounds below were run against Mitogen-activated protein kinase kinase kinase 5 (Homo sapiens) (UniProt Q99683) (assay: ASK1 kinase inhibitor potency, dose response, biochemical, AlphaScreen, MKK6 phosphorylation (AID 1159605;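 note: ASK1 phosphorylation of MKK6 substrate detected with anti-phospho-MKK6 antibody beads; inhibitors lower the luminescent signal by blocking MKK6 phosphorylation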)). Conditions: AlphaScreen luminescence.
Sequence of Mitogen-activated protein kinase kinase kinase 5 (Homo sapiens) (Q99683 whole entry, looked up): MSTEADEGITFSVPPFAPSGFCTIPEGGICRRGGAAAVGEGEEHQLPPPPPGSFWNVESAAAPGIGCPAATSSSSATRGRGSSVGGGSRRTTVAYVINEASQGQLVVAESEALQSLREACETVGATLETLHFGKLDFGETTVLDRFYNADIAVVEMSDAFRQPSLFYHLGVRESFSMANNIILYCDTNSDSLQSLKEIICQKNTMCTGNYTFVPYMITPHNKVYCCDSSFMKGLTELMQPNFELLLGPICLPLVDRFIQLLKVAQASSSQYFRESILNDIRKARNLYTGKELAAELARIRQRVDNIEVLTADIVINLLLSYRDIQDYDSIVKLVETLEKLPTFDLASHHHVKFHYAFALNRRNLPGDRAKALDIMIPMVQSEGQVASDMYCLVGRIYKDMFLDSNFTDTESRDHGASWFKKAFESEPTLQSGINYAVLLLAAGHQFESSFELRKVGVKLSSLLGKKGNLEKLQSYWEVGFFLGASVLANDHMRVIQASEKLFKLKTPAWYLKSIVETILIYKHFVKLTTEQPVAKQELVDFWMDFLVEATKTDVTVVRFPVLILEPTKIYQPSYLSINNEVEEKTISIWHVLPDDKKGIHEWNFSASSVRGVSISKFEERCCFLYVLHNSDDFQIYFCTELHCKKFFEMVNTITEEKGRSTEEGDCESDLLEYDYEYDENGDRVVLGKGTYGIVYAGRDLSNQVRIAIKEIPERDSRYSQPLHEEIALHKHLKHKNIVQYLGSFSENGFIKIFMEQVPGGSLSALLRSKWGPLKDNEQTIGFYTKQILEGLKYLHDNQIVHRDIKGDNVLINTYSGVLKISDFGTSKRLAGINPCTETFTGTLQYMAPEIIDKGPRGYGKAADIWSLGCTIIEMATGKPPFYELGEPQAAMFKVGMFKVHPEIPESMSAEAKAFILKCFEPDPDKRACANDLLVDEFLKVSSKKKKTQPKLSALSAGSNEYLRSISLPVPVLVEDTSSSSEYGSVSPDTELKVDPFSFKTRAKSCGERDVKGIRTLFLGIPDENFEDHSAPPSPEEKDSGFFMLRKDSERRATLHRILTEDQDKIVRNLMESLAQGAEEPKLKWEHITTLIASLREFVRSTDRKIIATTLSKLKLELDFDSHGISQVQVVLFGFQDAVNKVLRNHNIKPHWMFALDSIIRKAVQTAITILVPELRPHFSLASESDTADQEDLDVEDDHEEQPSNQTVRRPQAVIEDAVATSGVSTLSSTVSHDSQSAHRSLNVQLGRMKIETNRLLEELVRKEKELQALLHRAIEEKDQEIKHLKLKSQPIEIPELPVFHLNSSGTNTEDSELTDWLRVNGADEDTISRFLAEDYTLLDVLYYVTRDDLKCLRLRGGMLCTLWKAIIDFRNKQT

Structure (SMILES) | IC50
O=C(Nc1ccccc1)c1ccccc1Nc1ccnc(Nc2ccc(N3CCOCC3)cc2)c1 | > 19.2 µM (inactive)
O=C(NCCN1CCOCC1)c1cccc(-n2ncc3cc(Nc4c(F)cccc4[N+](=O)[O-])ccc32)c1 | > 19.2 µM (inactive)
c1ccc(CN2CCC(Nc3ccnc(Nc4ccc(N5CCOCC5)cc4)n3)CC2)cc1 | inactive
CC(C)n1c(-c2ccc(C(N)=O)cc2)nc2c(Nc3ccc(Oc4ccccc4)cc3)ncnc21 | > 20 µM (inactive)
COc1cc2nc(Nc3nccc4ccccc34)nc(Nc3ccc(N4CCOCC4)cc3)c2cc1OC | inactive
Fc1cc(-c2ccnc(Nc3ccc(N4CCOCC4)cc3)n2)cc(N2CCN(C3CC3)CC2)c1 | > 19.2 µM (inactive)
COc1cc2nc(Nc3cccc(N(C)C)c3)nc(NC3CC3)c2cc1OC | inactive
Cc1cc(NCc2cccc(C(F)(F)F)c2)nc(Nc2cccc(N(C)C)c2)n1 | > 20.1 µM (inactive)
c1cc(-n2cnc3c(Nc4ccc5c(c4)OCO5)nc(N4CCN(Cc5ccc6c(c5)OCO6)CC4)nc32)cs1 | > 19.9 µM (inactive)
COc1cc2nc(Nc3nccc4ccccc34)nc(Nc3ccc(NC(C)=O)cc3)c2cc1OC | inactive
Cc1n[nH]c(C)c1-c1cc(F)cc(-c2ccnc(Nc3ccc(-n4cnc(N5CCOCC5)n4)cc3)n2)c1 | > 19.2 µM (inactive)
c1cncc(CNc2nc(Nc3ccc(N4CCOCC4)cc3)nc3c2ncn3C2CCCCC2)c1 | > 20.1 µM (inactive)
COc1cc2nc(Nc3ccc(N4CCOCC4)cc3)nc(NC3CC3)c2cc1OC | inactive
Cc1cccc(Nc2ccc3c(cnn3-c3cccc(C(=O)NCCN4CCNCC4)c3)c2)c1Cl | > 19.2 µM (inactive)
COc1cc2nc(Nc3cccc(N(C)C)c3)nc(NCCOc3ccccc3)c2cc1OC | > 20.4 µM (inactive)
CN1CCN(c2ncn(-c3ccc(Nc4nccc(-c5cc(C#N)cc(N6CCC(O)CC6)c5)n4)cc3)n2)CC1 | > 19.2 µM (inactive)
c1cc(-n2cnc(N3CCOCC3)n2)ccc1Nc1ncc2ccc(-c3cn[nH]n3)cc2n1 | > 19.2 µM (inactive)
Oc1ccc(CCNc2nc(N3CCN(c4ccccn4)CC3)nc3c2ncn3-c2ccsc2)cc1 | > 21.3 µM (inactive)
Nc1nc(Nc2ccc(N3CCOCC3)cc2)cc(NC2CCN(Cc3ccccc3)CC2)n1 | > 23.1 µM (inactive)
COc1ccc(CCNc2nc(NC3CCN(Cc4ccccc4)CC3)nc3c2ncn3C2CCCCC2)cc1 | inactive
CC(C)n1cnc2c(Nc3ccc(N4CCOCC4)cc3)nc(N3CCN(Cc4ccc5c(c4)OCO5)CC3)nc21 | inactive

Structure (SMILES) | IC50
CCN(CC)c1nc(Nc2ccc3c(c2)OCO3)nc(N2CCC(N3CCOCC3)CC2)n1 | inactive
Cc1ccc(-c2ncn(-c3ccc(Nc4ncc(Cl)c(-c5ccnn5C)n4)cc3)n2)cn1 | > 19.2 µM (inactive)
Cc1ccccc1-c1cscc1Nc1cnn(-c2cccc(C(=O)Nc3ccc(N4CCOCC4)cc3)c2)c1 | > 19.2 µM (inactive)
COc1cc2nc(Nc3ccc(N4CCOCC4)cc3)nc(NCc3cccc(C(F)(F)F)c3)c2cc1OC | > 20.1 µM (inactive)
COc1cc(NC(=O)c2cccc(-n3cc(NC(=O)Nc4ccc(-c5ccccc5)cc4)cn3)c2)cc(OC)c1OC | > 19.2 µM (inactive)
COc1cc2nc(Nc3cccc(N(C)C)c3)nc(NCc3cccc(C(F)(F)F)c3)c2cc1OC | > 18.9 µM (inactive)
c1ccc(CN2CCC(Nc3nc(N4CCN(Cc5ccc6c(c5)OCO6)CC4)nc4c3ncn4C3CCCCC3)CC2)cc1 | inactive
c1ccc(Nc2cc(-c3ccnc(Nc4ccc(N5CCOCC5)cc4)c3)nn2-c2ccccc2)cc1 | > 19.2 µM (inactive)
CC(C)n1cnc2c(Nc3ccc(Oc4ccccc4)cc3)nc(N3CCOCC3)nc21 | inactive
Cc1cnc(Nc2nc3ccccc3n2C)nc1Nc1ccc(N2CCOCC2)cc1 | > 21.8 µM (inactive)
COc1cc(Nc2nc(-c3ccc(C(N)=O)cc3)nc3c2ncn3C2CCCCC2)cc(OC)c1OC | inactive
COc1cc2nc(NC3CCN(Cc4ccccc4)CC3)nc(Nc3ccc(N4CCOCC4)cc3)c2cc1OC | inactive
Cc1nc(C)n(-c2ccc(Nc3nccc(-c4cc(F)cc(-c5cn[nH]c5C)c4)n3)cc2)n1 | > 19.2 µM (inactive)
Cn1cc(-c2ccc3cnc(Nc4ccc(-c5ccc(N6CCOCC6)nc5)cc4)nc3c2Cl)cn1 | > 19.2 µM (inactive)
FC(F)(F)c1cccc(CNc2nc(N3CCN(c4ccccn4)CC3)nc3c2ncn3-c2ccsc2)c1 | > 20 µM (inactive)
CC(C)n1cnc2c(Nc3ccc4c(c3)OCO4)nc(NCc3ccc4c(c3)OCO4)nc21 | inactive
COc1cc2nc(Nc3ccc(N4CCOCC4)cc3)nc(Nc3ccc4c(c3)OCO4)c2cc1OC | inactive
Cc1cc(Nc2ccc(N3CCOCC3)cc2)nc(Nc2cccc(N(C)C)c2)n1 | > 19.9 µM (inactive)
Fc1ccc(-c2c(-c3ccnc(Nc4ccc(N5CCOCC5)cc4)c3)noc2NCc2ccccc2)cc1 | > 19.2 µM (inactive)
c1cn(-c2ccc(Nc3nc4ncnc(Nc5ccc6c(c5)OCO6)c4[nH]3)cc2)cn1 | > 21.9 µM (inactive)
COc1cc2nc(Nc3cccc(N(C)C)c3)nc(Nc3ccc(N4CCOCC4)cc3)c2cc1OC | > 19.9 µM (inactive)

Structure (SMILES) | IC50
Cc1nc(C)n(-c2ccc(Nc3nccc(-c4cccc(-n5nccn5)c4)n3)cc2)n1 | > 19.2 µM (inactive)
Cc1ccc(-c2ncn(-c3ccc(Nc4nccc(-c5cncc(N6CCOCC6)c5)n4)cc3)n2)cn1 | > 19.2 µM (inactive)
Cc1cc(NCCc2ccc(O)cc2)nc(Nc2cccc(N(C)C)c2)n1 | inactive
Cc1ncn(-c2ccc(Nc3nccc(-c4cc(F)cc(-c5cn[nH]c5C)c4)n3)cc2)n1 | > 19.2 µM (inactive)
Oc1ccc(CCNc2nc(N3CCN(Cc4ccc5c(c4)OCO5)CC3)nc3c2ncn3-c2ccsc2)cc1 | inactive
COc1ccc(CCNc2ccnc(Nc3cccc(N(C)C)c3)n2)cc1 | 7.76 µM
COc1ccc(CCNc2nc(Nc3ccc(N4CCOCC4)cc3)nc3c2ncn3Cc2ccc(C(F)(F)F)cc2)cc1 | 5.3 µM
COc1cc2nc(Nc3ccncc3)nc(Nc3ccc(N4CCOCC4)cc3)c2cc1OC | inactive
Cc1nc(C)n(-c2ccc(Nc3nccc(-c4cccc(-n5cncn5)c4)n3)cc2)n1 | > 19.2 µM (inactive)
COc1ccc(CCNc2nc(Nc3ccc(N4CCOCC4)cc3)nc3c2ncn3-c2ccccc2)cc1 | 9.28 µM
FC(F)(F)c1ccc(Cn2cnc3c(Nc4ccc5c(c4)OCO5)nc(Nc4ccccc4)nc32)cc1 | > 22 µM (inactive)
c1ccc(OCCNc2nc(N3CCN(Cc4ccc5c(c4)OCO5)CC3)nc3c2ncn3C2CCCCC2)cc1 | inactive
FC(F)(F)c1cccc(CNc2ccnc(Nc3ccc(N4CCOCC4)cc3)n2)c1 | inactive
COc1cc2nc(Nc3nc4ccccc4n3C)nc(Nc3ccc(N4CCOCC4)cc3)c2cc1OC | 8.95 µM
COc1ccc(CCNc2nc(Nc3cccc(N(C)C)c3)nc3c2ncn3C(C)C)cc1 | > 20 µM (inactive)
CN(C)c1cccc(Nc2nccc(NCCOc3ccccc3)n2)c1 | inactive
COc1ccc(CCNc2nc(Nc3ccc(N4CCOCC4)cc3)nc3cc(OC)c(OC)cc23)cc1 | inactive
Cc1cc(NC2CCN(Cc3ccccc3)CC2)nc(Nc2ccc(N3CCOCC3)cc2)n1 | inactive
COc1ccc(CCNc2nc(Nc3ccc(N4CCOCC4)cc3)ncc2C)cc1 | inactive
